Patent US11028066B2, “Inhibitors of lysine specific demethylase-1” (CELGENE QUANTICEL RESEARCH, INC., priority 2014, dated 2021)

How the values were obtained:
full-length human LSD1 = full-length human LSD1 (Homo sapiens (Human), UniProt O60341); experiment: In vitro enzyme inhibition assay LSD-1 (TR-FRET); format: biochemical; settings: H3K4me1-biotin peptide
Procedure: This assay determines the ability of a test compound to inhibit LSD1 demethylase activity.
The enzymatic assay of LSD1 activity is based on Time Resolved-Fluorescence Resonance Energy Transfer (TR-FRET) detection.
Plates were read by EnVision Multilabel Reader in TR-FRET mode (excitation at 320 nm, emission at 615 nm and 665 nm) after 1 hour incubation at room temperature.
The ability of the compounds disclosed herein to inhibit LSD1 activity was quantified and the respective IC50 value was determined.

THP-1 (AML) cells = experiment: LSD1 CD11b cellular assay (flow cytometry); format: cell-based; settings: Homo sapiens, THP-1, 96 h; CD11b expressing cells, 4 days incubation
Procedure: To analyze LSD1 inhibitor efficacy in cells, a CD11b flow cytometry assay was performed. LSD1 inhibition induces CD11b expression in THP-1 (AML) cells which can be measured by flow cytometry. […] LSD1 test compounds were serially diluted in DMSO. The dilutions were added to each well accordingly to a final concentration of 0.2% DMSO. The cells were incubated at 37 degrees Celsius in 5% CO2 for 4 days. 250 μL of each well was transferred to a well in a 96 well round bottom plate. The plate was centrifuged at 1200 rpm at 4 degrees Celsius in a Beckman Coulter Alegra 6KR centrifuge for 5 minutes. The media was removed leaving the cells at the bottom of the wells. The cells were washed in 100 μL cold HBSS (Hank's Balanced Salt Solution) plus 2% BSA (Bovine Serum Albumin) solution and centrifuged at 1200 rpm at 4 degrees Celsius for 5 minutes. The wash was removed. […] The cells were centrifuged and washed two times in 100 μL HBSS plus 2% BSA. After the final spin the cells were resuspended in 100 μL HBSS plus 2% BSA containing 1 ug/mL DAPI (4′,6-diamidino-2-phenylindole). The cells were then analyzed by flow cytometry in a BD FACSAria machine. Cells were analyzed for CD11b expression. The percent of CD11b expressing cells for each inhibitor concentration was used to determine an IC50 curve for each compound analyzed.

Kasumi-1 = Kasumi-1 AML cell line proliferation assay (Cell-MTS assay); format: cell-based; settings: Homo sapiens, 168 hours incubation
Excerpt: Colorimetric cellular assay to assess the ability of LSD-1 small molecule inhibitors to effect the proliferation of the established AML cancer cell line Kasumi-1.
This Cell-MTS assay is a 7-day plate based colorimetric assay which quantifies the amount of newly generated NADH in the presence and absence of test compound. These NADH levels are used as a proxy for the quantification of cancer cell proliferation.
The established cancer cell line Kasumi-1 with a verified p53 mutation were purchased from American Type Culture Collection (ATCC) and routinely passaged according to ATCC published protocols. For routine assay these cells were seeded at a density of 20,000 cells per 96-well. 24 hours after plating, cells received an 11 point dilution of test compound with final concentration ranges from 100 μM to 2.0 nM. Cells are incubated in the presence of compound for 168 hours at 37° C., 5% CO2. At the end of this compound incubation period, 80 μl of media is removed and 20 μL of CellTiter 96® AQueous Non-Radioactive Cell Proliferation Assay solution (Promega) is added. The cells are incubated until the OD490 is >0.6. IC50 values are calculated using the IDBS XLfit software package and include background subtracted OD490 values and normalization to DMSO controls.
Table 5 provides the Kasumi-1 cellular IC50 values of various substituted heterocyclic compounds disclosed herein.

CCc1ccc(-c2c(-c3ccc(C#N)cc3)nc(NC[C@H]3CCNC3)c(=O)n2C)cc1 [Example 28, 4-[3-(4-ethylphenyl)-4-methyl-5-oxo-6-{[(3S)-pyrrolidin-3-ylmethyl]amino}-4,5-dihydropyrazin-2-yl]benzonitrile]
IC50 (full-length human LSD1): < 100 nM
IC50 (THP-1 (AML) cells): 100 to 1000 nM
IC50 (Kasumi-1): ≤ 100 nM

COc1ccc(-c2c(-c3ccc(C#N)cc3)nc(NC[C@H]3CCNC3)c(=O)n2C)cc1 [Example 31, 4-[3-(4-methoxyphenyl)-4-methyl-5-oxo-6-{[(3S)-pyrrolidin-3-ylmethyl]amino}-4,5-dihydropyrazin-2-yl]benzonitrile]
IC50 (full-length human LSD1): < 100 nM
IC50 (THP-1 (AML) cells): < 100 nM
IC50 (Kasumi-1): ≤ 100 nM

Cn1c(-c2ccc(C3CC3)cc2)c(-c2ccc(C#N)cc2)nc(N2CCC(N)CC2)c1=O [Example 33, 4-[6-(4-aminopiperidin-1-yl)-3-(4-cyclopropylphenyl)-4-methyl-5-oxo-4,5-dihydropyrazin-2-yl]benzonitrile]
IC50 (full-length human LSD1): < 100 nM
IC50 (THP-1 (AML) cells): < 100 nM
IC50 (Kasumi-1): ≤ 100 nM

COCCn1c(-c2ccc(C)cc2)c(-c2ccc(C#N)cc2)nc(N2CCC(N)CC2)c1=O [Example 36, 4-[6-(4-amino-piperidin-1-yl)-4-(2-methoxy-ethyl)-5-oxo-3-p-tolyl-4,5-dihydro-pyrazin-2-yl]-benzonitrile]
IC50 (full-length human LSD1): < 100 nM
IC50 (THP-1 (AML) cells): < 100 nM
IC50 (Kasumi-1): ≤ 100 nM

Cc1ccc(-c2c(-c3ccc(C#N)cc3)nc(N3CCC(N)CC3)c(=O)n2CCCO)cc1 [Example 40, 4-[6-(4-amino-piperidin-1-yl)-4-(3-hydroxy-propyl)-5-oxo-3-p-tolyl-4,5-dihydro-pyrazin-2-yl]-benzonitrile]
IC50 (full-length human LSD1): < 100 nM
IC50 (THP-1 (AML) cells): < 100 nM
IC50 (Kasumi-1): ≤ 100 nM

Cc1ccc(-c2c(-c3ccc(C#N)c(F)c3)nc(N3CCC(N)CC3)c(=O)n2CCO)cc1 [Example 42, 4-[6-(4-amino-piperidin-1-yl)-4-(2-hydroxy-ethyl)-5-oxo-3-p-tolyl-4,5-dihydro-pyrazin-2-yl]-2-fluoro-benzonitrile]
IC50 (full-length human LSD1): < 100 nM
IC50 (THP-1 (AML) cells): < 100 nM
IC50 (Kasumi-1): ≤ 100 nM

Cc1ccc(-c2c(-c3ccc(C#N)c(F)c3)nc(NC[C@H]3CCNC3)c(=O)n2CCO)cc1 [Example 44, 4-(6-{[((3S)-pyrrolidin-3-yl)methyl]amino}-4-(2-hydroxyethyl)-3-(4-methylphenyl)-5-oxo(4-hydropyrazin-2-yl))-2-fluorobenzenecarbonitrile]
IC50 (full-length human LSD1): < 100 nM
IC50 (THP-1 (AML) cells): < 100 nM
IC50 (Kasumi-1): ≤ 100 nM

Cc1ccc(-c2c(-c3ccc(C#N)c(F)c3)nc(N3CCC(N)CC3)c(=O)n2CCCO)cc1 [Example 46, 4-[6-(4-aminopiperidyl)-4-(3-hydroxypropyl)-3-(4-methylphenyl)-5-oxo(4-hydropyrazin-2-yl)]-2-fluorobenzenecarbonitrile]
IC50 (full-length human LSD1): < 100 nM
IC50 (THP-1 (AML) cells): < 100 nM
IC50 (Kasumi-1): ≤ 100 nM

CCc1ccc(-c2c(-c3ccc(C#N)nc3)cc(NC[C@H]3CCNC3)c(=O)n2C)cc1 [Example 71, (S)-5-(2-(4-ethylphenyl)-1-methyl-6-oxo-5-(pyrrolidin-3-ylmethylamino)-1,6-dihydropyridin-3-yl)picolinonitrile]
IC50 (full-length human LSD1): < 100 nM
IC50 (THP-1 (AML) cells): < 100 nM

CCc1ccc(-c2c(-c3ccc(C#N)c(F)c3)cc(NC[C@H]3CCNC3)c(=O)n2C)cc1 [Example 72, (S)-4-(2-(4-ethylphenyl)-1-methyl-6-oxo-5-(pyrrolidin-3-ylmethylamino)-1,6-dihydropyridin-3-yl)-2-fluorobenzonitrile]
IC50 (full-length human LSD1): < 100 nM
IC50 (THP-1 (AML) cells): < 100 nM

Cn1c(-c2ccc(C3CC3)cc2)c(-c2ccc(C#N)nc2)cc(NC[C@H]2CCNC2)c1=O [Example 73, (S)-5-(2-(4-cyclopropylphenyl)-1-methyl-6-oxo-5-(pyrrolidin-3-ylmethylamino)-1,6-dihydropyridin-3-yl)picolinonitrile]
IC50 (full-length human LSD1): < 100 nM
IC50 (THP-1 (AML) cells): < 100 nM

CNC1CCN(c2cc(-c3ccc(C#N)cc3)c(-c3ccc(OC)cc3)n(C)c2=O)CC1 [Example 78, 4-{2-(4-methoxyphenyl)-1-methyl-5-[4-(methylamino)piperidyl]-6-oxo-3-hydropyridyl}benzenecarbonitrile]
IC50 (full-length human LSD1): < 100 nM
IC50 (THP-1 (AML) cells): < 100 nM

CNC1CCN(c2cc(-c3ccc(C#N)c(F)c3)c(-c3ccc(OC)cc3)n(C)c2=O)CC1 [Example 79, 2-fluoro-4-{2-(4-methoxyphenyl)-1-methyl-5-[4-(methylamino)piperidyl]-6-oxo(3-hydropyridyl)}benzenecarbonitrile]
IC50 (full-length human LSD1): < 100 nM
IC50 (THP-1 (AML) cells): < 100 nM

CNC1CCN(c2cc(-c3ccc(C#N)cc3)c(-c3ccc(C)cc3)n(C)c2=O)CC1 [Example 80, 4-{1-methyl-5-[4-(methylamino)piperidyl]-2-(4-methylphenyl)-6-oxo-3-hydropyridyl}benzenecarbonitrile]
IC50 (full-length human LSD1): < 100 nM
IC50 (THP-1 (AML) cells): < 100 nM

COc1ccc(-c2c(-c3ccc(C#N)cc3)cc(N3CCC(N)CC3)c(=O)n2CC2CC2)cc1 [Example 81, 4-[5-(4-aminopiperidin-1-yl)-1-(cyclopropylmethyl)-2-(4-methoxyphenyl)-6-oxopyridin-3-yl]benzonitrile]
IC50 (full-length human LSD1): < 100 nM
IC50 (THP-1 (AML) cells): < 100 nM

CCn1c(-c2ccc(OC)cc2)c(-c2ccc(C#N)cc2)cc(N2CCC(N)CC2)c1=O [Example 82, 4-[5-(4-aminopiperidin-1-yl)-1-ethyl-2-(4-methoxyphenyl)-6-oxopyridin-3-yl]benzonitrile]
IC50 (full-length human LSD1): < 100 nM
IC50 (THP-1 (AML) cells): < 100 nM

COc1ccc(-c2c(-c3ccc(C#N)c(F)c3)cc(N3CCC(N)CC3)c(=O)n2CC2CC2)cc1 [Example 85, 4-[5-(4-aminopiperidin-1-yl)-1-(cyclopropylmethyl)-2-(4-methoxyphenyl)-6-oxopyridin-3-yl]-2-fluorobenzonitrile]
IC50 (full-length human LSD1): < 100 nM
IC50 (THP-1 (AML) cells): < 100 nM

CNC1CCN(c2cc(-c3ccc(C#N)c(F)c3)c(-c3ccc(OC)c(F)c3)n(C)c2=O)CC1 [Example 86, 2-fluoro-4-[2-(3-fluoro-4-methoxyphenyl)-1-methyl-5-[4-(methylamino)piperidin-1-yl]-6-oxopyridin-3-yl]benzonitrile]
IC50 (full-length human LSD1): < 100 nM
IC50 (THP-1 (AML) cells): < 100 nM

COc1ccc(-c2c(-c3ccc(C#N)c(F)c3)nc(N3CCC(N)CC3)c(=O)n2CC(N)=O)cc1 [Example 88, 2-[3-(4-aminopiperidyl)-5-(4-cyano-3-fluorophenyl)-6-(4-methoxyphenyl)-2-oxohydropyrazinyl]acetamide]
IC50 (full-length human LSD1): < 100 nM
IC50 (THP-1 (AML) cells): < 100 nM

COc1ccc(-c2c(-c3ccc(C#N)c(F)c3)nc(N3CCC(N)CC3)c(=O)n2CCC(N)=O)cc1 [Example 89, 3-[3-(4-aminopiperidyl)-5-(4-cyano-3-fluorophenyl)-6-(4-methoxyphenyl)-2-oxohydropyrazinyl]propanamide]
IC50 (full-length human LSD1): < 100 nM
IC50 (THP-1 (AML) cells): < 100 nM

COc1ccc(-c2c(-c3ccc(C#N)c(F)c3)nc(N3CCC(N)CC3)c(=O)n2CCCC(N)=O)cc1 [Example 90, 4-[3-(4-aminopiperidyl)-5-(4-cyano-3-fluorophenyl)-6-(4-methoxyphenyl)-2-oxohydropyrazinyl]butanamide]
IC50 (full-length human LSD1): < 100 nM
IC50 (THP-1 (AML) cells): < 100 nM

CNC1CCN(c2cc(-c3ccc(C#N)cc3)c(-c3ccc(N(C)C)nc3)n(C)c2=O)CC1 [Example 92, 4-{2-[6-(dimethylamino)(3-pyridyl)]-1-methyl-5-[4-(methylamino)piperidyl]-6-oxo-3-hydropyridyl}benzenecarbonitrile]
IC50 (full-length human LSD1): < 100 nM
IC50 (THP-1 (AML) cells): < 100 nM
